Measurements reported in the supplement of paper PMC10011410.
± gives the standard deviation of the averaged measurements.

Columns and labels:
U-2 OS [1] = experiment: relative cell count vs DMSO (cell painting) (fraction of DMSO control); higher = more cells remaining (less cytotoxic); conditions: 24 h
Summary of the method: (§1)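 Images taken on an Opera Phenix of U-2 OS cells stained with MitoTracker, concanavalin A, phalloidin, wheat germ agglutinin, Hoechst and SYTO 14 were processed in CellProfiler, with features normalized to DMSO cells on the same plate. The cells, about 1,500 per well in 384-well plates, had been treated by pin tool for 24 h at 37 °C, usually at six 2-fold concentrations from 20 μM to 625 nM. The activity score measures Mahalanobis distance from DMSO wells, and cell count is expressed relative to DMSO wells. Each value averages four replicate plates.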

U-2 OS [2] = experiment: cell painting activity score (Mahalanobis distance from DMSO wells); higher = stronger morphological phenotype; conditions: 24 h
Summary of the method: as §1

U-2 OS [3] = experiment: AUC of culture confluence over time (live-cell imaging) (AUC (confluence % x time)); higher = more confluent culture (less growth inhibition)
Summary of the method: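 The value is the area under the curve of confluence plotted against time. U-2 OS cells in F-12K medium with 10% FBS were seeded at 750 per well in 384-well plates, then treated by pin tool 24 h later, most compounds at 20, 10 and 5 μM with 0.2% DMSO. At 37 °C, an Incucyte S3 with a 10x objective imaged the wells every 4 h for up to 60 h.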

U-2 OS [4] = experiment: cell viability (CellTiter-Glo) relative to DMSO (% of control); higher = more viable; conditions: 24 h
Description: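 Cell viability of U-2 OS cells by CellTiter-Glo after 24 h compound treatment at 5, 10 and 20 uM (some at 40 and 80 uM), measured in parallel with the glutathione assay, as percent of DMSO control. Five technical replicate plates, averaged.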

U-2 OS [5] = experiment: intracellular GSH:GSSG ratio (calculated); higher = more reduced glutathione pool; conditions: 24 h
Description: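 Intracellular glutathione in U-2 OS cells after 24 h compound treatment at 5, 10 and 20 uM (some at 40 and 80 uM). Total glutathione and GSSG were measured with the GSH/GSSG-Glo kit, and the GSH:GSSG ratio was calculated. Mean of five technical replicate plates.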

U-2 OS [6] = experiment: total intracellular glutathione (GSH + GSSG) relative to DMSO (% of control); higher = more glutathione; conditions: 24 h
Description: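 Total intracellular glutathione (GSH + GSSG) in U-2 OS cells by GSH/GSSG-Glo after 24 h compound treatment at 5, 10 and 20 uM (some at 40 and 80 uM), as percent of DMSO control. Five technical replicate plates, averaged.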

Compound	relative cell count (U-2 OS [1]; 0.625 µM)	relative cell count (U-2 OS [1]; 1.25 µM)	relative cell count (U-2 OS [1]; 2.5 µM)	relative cell count (U-2 OS [1]; 5 µM)	relative cell count (U-2 OS [1]; 10 µM)	relative cell count (U-2 OS [1]; 20 µM)	cell painting activity score (U-2 OS [2]; 0.625 µM)	cell painting activity score (U-2 OS [2]; 1.25 µM)	cell painting activity score (U-2 OS [2]; 2.5 µM)	cell painting activity score (U-2 OS [2]; 5 µM)	cell painting activity score (U-2 OS [2]; 10 µM)	cell painting activity score (U-2 OS [2]; 20 µM)	AUC of culture confluence over time (U-2 OS [3]; 5 µM)	AUC of culture confluence over time (U-2 OS [3]; 10 µM)	AUC of culture confluence over time (U-2 OS [3]; 20 µM)	cell viability (U-2 OS [4]; 5 µM)	cell viability (U-2 OS [4]; 10 µM)	cell viability (U-2 OS [4]; 20 µM)	intracellular GSH:GSSG ratio (U-2 OS [5]; 5 µM)	intracellular GSH:GSSG ratio (U-2 OS [5]; 10 µM)	intracellular GSH:GSSG ratio (U-2 OS [5]; 20 µM)	total intracellular glutathione (U-2 OS [6]; 5 µM)	total intracellular glutathione (U-2 OS [6]; 10 µM)	total intracellular glutathione (U-2 OS [6]; 20 µM)
Nc1nc(-c2ccccc2)ns1	1	0.944	0.943	0.973	1	1.01	3.85	4.11	4.04	3.13	2.93	3.84	44.7	46.7	45.6	104 ± 5.4	104 ± 3	101 ± 6.3	29.7	23.5	27.1	107 ± 7.8	89.3 ± 4	117 ± 7.1
O=C1C=CC(=O)N1c1ccccc1	1.02	1.06	0.8	0.602	0.224	0.317	4.85	4.24	9.29	14.7	19.6	16.3	13.1	14.2	13.5	81.7 ± 12	14.3 ± 4.6	4.32 ± 3.1	20.1	4.06	17.8	114 ± 9.5	23.6 ± 7.2	14.3 ± 6.1
CC(C)[C@H](C(=O)Nc1ccc(C(=O)NO)cc1)c1ccccc1	0.727	0.52	0.497	0.465	0.442	0.41	16.9	20.2	19.4	17.6	13.3	15.9	18.7	20	18.2	44.2 ± 4.6	44 ± 1.6	44 ± 1.6	6.7	7.56	–	40.8 ± 2.6	40.5 ± 3.5	39.6 ± 4.1
c1ccc(-c2noc(NC3CCCC3)n2)cc1	1.03	1.02	1.06	1.05	1.07	1.06	2.72	2.85	2.97	3.02	2.62	3.1	44	42.5	44.2	95.5 ± 6.9	101 ± 8.9	97 ± 6.5	28.5	30.3	26	103 ± 5.1	103 ± 10	107 ± 7.1
